Data reported in PMC6297231 (Nature Communications, 2018).

What was measured:
AMO1 = test: Cell viability assay; type: cell-based; conditions: Homo sapiens, 24 h; AMO1 (MM); read-out: AZD5991 24h GI50
DMS114 = test: Cell viability assay; type: cell-based; conditions: Homo sapiens, DMS-114, 24 h; DMS114 (Lung); read-out: AZD5991 24h GI50
CMK = test: Cell viability assay; type: cell-based; conditions: Homo sapiens, 24 h; CMK (AML); read-out: AZD5991 24h GI50
NCI-H929 tumors = test: NCI-H929 subcutaneous xenograft efficacy; type: in vivo, mice; conditions: single i.v. dose 100 mg kg^−1
Protocol: Female C.B.-17 SCID mice and female nude rats were purchased from Charles River Laboratories. […]. All xenograft studies were conducted at our Association for the Assessment and Accreditation of Laboratory Animal Care accredited facility in Waltham, MA in accordance with ethical regulations described in the guidelines established by the internal Institutional Animal Care and Use Committee. […]. In mice, drugs were dosed intravenously in a volume of 5 mL kg^-1 except for venetoclax that was dosed orally in a volume of 10 mL kg^-1. […]. Ten million MV4-11 cells were injected subcutaneously in the right flank of rats in a volume of 0.1 mL. Tumor volumes (measured by caliper), animal body weight, and tumor condition were recorded twice weekly for the duration of the study. The tumor volume was calculated using the formula: length (mm) × width (mm)^2/0.52. For efficacy studies, growth inhibition from the start of treatment was assessed by comparison of the differences in tumor volume between control and treated groups. Statistical significance was evaluated using non-parametric, unpaired, two-tailed t-test. […] For pharmacokinetic analysis, plasma samples were precipitated and diluted with acetonitrile containing internal standard and analyzed by LC–MS/MS versus a calibration curve of known concentrations.

RPMI8226 = test: Cell viability assay; type: cell-based; conditions: Homo sapiens, RPMI-8226, 24 h; RPMI8226 (MM); read-out: AZD5991 24h GI50
WM2664 = test: Cell viability assay; type: cell-based; conditions: Homo sapiens, WM 266-4, 24 h; WM2664 (Skin); read-out: AZD5991 24h GI50
ZR751 [1] = test: Cell viability assay; type: cell-based; conditions: Homo sapiens, ZR-75-1, 24 h; ZR751 (Breast); read-out: AZD5991 24h GI50
SKMEL2 = test: cells; conditions: Homo sapiens, SK-MEL-2, 6 h, read-out: AZD5991 6h EC50
Protocol: (§1) Cells were plated at 3000 cells/well in 384-well white plates in corresponding cell growth media. […] Caspase-3/7 activation was subsequently determined using a Caspase-Glo 3/7 Reagent (Promega) and viability was assayed using the CellTiter-Glo Reagent (Promega) as described in manufacturer’s instructions. Dose–response curves for caspase-3/7 activation and viability were plotted and analyzed (including EC50 and GI50 determination) using GraphPad Prism. Percentage of caspase activation was calculated against the maximum caspase activation value (100%) obtained with a proprietary cell kill control.

Sudhl8 = test: cells; conditions: Homo sapiens, SU-DHL-8, 6 h, read-out: AZD5991 6h EC50
Protocol: as §1

Karpas620 = test: cells; conditions: Karpas-620, 6 h, read-out: AZD5991 6h EC50
Protocol: as §1

U2932 = test: cells; conditions: Homo sapiens, U2932, 6 h, read-out: AZD5991 6h EC50
Protocol: as §1

ZR751 [2] = test: cells; conditions: Homo sapiens, ZR-75-1, 6 h, read-out: AZD5991 6h EC50
Protocol: as §1

A101D = test: cells; conditions: Homo sapiens, 6 h, read-out: AZD5991 6h EC50
Protocol: as §1

SKLU1 = test: cells; conditions: Homo sapiens, SK-LU-1, 6 h, read-out: AZD5991 6h EC50
Protocol: as §1

H2122 = test: cells; conditions: Homo sapiens, NCI-H2122, 6 h, read-out: AZD5991 6h EC50
Protocol: as §1

RCK8 = test: cells; conditions: Homo sapiens, RCK8, 6 h, read-out: AZD5991 6h EC50
Protocol: as §1

Sudhl5 = test: cells; conditions: Homo sapiens, SU-DHL-5, 6 h, read-out: AZD5991 6h EC50
Protocol: as §1

T47D = test: cells; conditions: Homo sapiens, 6 h, read-out: AZD5991 6h EC50
Protocol: as §1

U266B1 = test: cells; conditions: 6 h, read-out: AZD5991 6h EC50
Protocol: as §1

DU145 = test: cells; conditions: Homo sapiens, DU-145, 6 h, read-out: AZD5991 6h EC50
Protocol: as §1

KG1a = test: cells; conditions: Homo sapiens, KG-1a, 6 h, read-out: AZD5991 6h EC50
Protocol: as §1

KMS12BM = test: Cell viability assay; type: cell-based; conditions: Homo sapiens, KMS-12-BM, 24 h; KMS12BM (MM); read-out: AZD5991 24h GI50
LnCAP = test: Cell viability assay; type: cell-based; conditions: Homo sapiens, 24 h; LnCAP (Urology); read-out: AZD5991 24h GI50
Z-138 = test: Cell viability assay; type: cell-based; conditions: Homo sapiens, 24 h; Z-138 (NHL); read-out: AZD5991 24h GI50
H1734 = test: Cell viability assay; type: cell-based; conditions: Homo sapiens, NCI-H1734, 24 h; H1734 (Lung); read-out: AZD5991 24h GI50

SMILES: Cc1c2c(nn1C)CSCc1cc(n(C)n1)CSc1cc(c3ccccc3c1)OCCCc1c(C(=O)O)n(C)c3c-2c(Cl)ccc13 (atropisomer, axis not shown; (Ra)) [(Ra)-7]
- GI50 (AMO1): 0.129 µM
- GI50 (DMS114): 0.219 µM
- GI50 (CMK): > 30 µM
- mice with complete tumor regression (NCI-H929 tumors): four out of four
- GI50 (RPMI8226): 0.055 µM
- GI50 (WM2664): 13.2 µM
- GI50 (ZR751 [1]): 21.2 µM
- EC50 (SKMEL2): 9.48 µM
- EC50 (Sudhl8): 0.595 µM
- EC50 (Karpas620): 0.122 µM
- EC50 (U2932): 24.2 µM
- EC50 (ZR751 [2]): > 30 µM
- EC50 (A101D): 1.52 µM
- EC50 (SKLU1): > 30 µM
- EC50 (H2122): 15.2 µM
- EC50 (RCK8): > 30 µM
- EC50 (Sudhl5): 0.019 µM
- EC50 (T47D): > 30 µM
- EC50 (U266B1): > 30 µM
- EC50 (DU145): > 30 µM
- EC50 (KG1a): 1.43 µM
- GI50 (KMS12BM): 0.015 µM
- GI50 (LnCAP): 13.4 µM
- GI50 (Z-138): 0.29 µM
- GI50 (H1734): 13.8 µM
